# Read-outs that look alike come from different tables or passages of the source.
# Columns and labels:
# Type in all cases: physicochemical
# [1] = Micellar solubility determination of MF in 10% surfactant solutions in water; settings: for solubility: 10% w/w excipient solution in water, aqueous with cosolvent or surfactant or cyclodextrin, thermodynamic from solid
# Description: To determine the solubility of MF in various solutions, various MF solutions are prepared by measuring each excipient into a beaker at a 10% w/w concentration. If needed, the excipients are melted using a water bath maintained at 65° C. for approximately 30 minutes. The composition is q.s. to 50 g with water and mixed with an overhead/lightening mixer. Approximately 50-60 mg of anhydrous mometasone furoate anhydrous is added into each mixture. The solutions are mixed at a low speed on a shaker (Eberbacher) for about 48 to about 72 hours. Approximately 20 mL of each suspension are removed and centrifuged at 1200 rpm for 12 minutes. Approximately 5 mL of the supernatant is filtered using a 0.22 μm syringe filter. A 1 mL sample is taken from each filtered sample, diluted, and assayed using an HPLC.
# [2] = Microemulsion equilibrium solubility determination of mometasone furoate; settings: for concentration of mometasone furoate achieved: 5% MIGLYOL; for solubility at 72 h: SOLUTOL HS-15-based microemulsion, aqueous with cosolvent or surfactant or cyclodextrin, thermodynamic from solid
# Description: The equilibrium solubility of mometasone furoate is determined in SOLUTOL® HS-15-based microemulsion composition composed of 20% of SOLUTOL® HS-15 with varying amounts of different oils (FIG. 2, Table 2). An excess amount of the drug is added in the solutions after water had been added. The vials is shaken over a 72 hour period. The solutions is centrifuged and filtered at various time intervals prior to analysis of the samples by HPLC. The drug solubility ranged from 300 mcg/ml to 600 mcg/g. Alternative oils are also explored (Table 3).
# The concentration was ˜519 mcg/ml in a similar composition where PBS was replaced with water. To achieve a concentration of exactly 500 mcg/ml, roughly 5 mg of the drug was weighed and added to a mixture of 2 g of SOLUTOL® HS-15 and 0.5 g of MIGLYOL® 812, that was previously mixed using a magnetic stir bar. After the drug was dissolved in the pre-concentrate, 7.5 g of distilled water was added to the above mix to formulate a microemulsion of mometasone furoate.
# [3] = MF solubility in cyclodextrin solutions; settings: 3 mM citrate buffer pH 4.5
# Description: Compositions of mometasone furoate 6 mg/ml were prepared in duplicate with a 0.05, […], and 0.2 M of four different cyclodextrins: an unsubstituted gamma cyclodextrin, a sulfobutyl ether (SBE) beta cyclodextrin (Captisol), and two substituted SBE gamma cyclodextrins. Only 0.05 and 0.1M cyclodextrins were evaluated for the unsubstituted gamma cyclodextrin. All compositions were prepared in a 3 mM citrate buffer at a pH of 4.5. The compositions were placed on a roller mixer (Stuart Scientific SRT233 rpm rise/fall 16 mm) protected from light and mixed for about three days. After the three day equilibration, the compositions were filtered using a 0.22 micrometer PVDF syringe filter and analyzed by HPLC.
# [4] = Effect of additives on MF solubility in 0.2 M Captisol solution; settings: aqueous with cosolvent or surfactant or cyclodextrin
# Description: A stock solution of 0.2 M Captisol (SBE beta cyclodextrin) was prepared. Table 5 and FIG. 4 list the effect of various additives on the MF solubility of this solution: […]
# [5] = Microemulsion equilibrium solubility determination of mometasone furoate; settings: POLOXAMER 407-based microemulsion, aqueous with cosolvent or surfactant or cyclodextrin, thermodynamic from solid, microemulsion: ethyl laurate 5% w/w, POLOXAMER 407 10% w/w; read-out: MF Solubility
# [6] = MF solubility in cyclodextrin solutions; settings: 3 mM citrate buffer pH 4.5; remark: listed apart in the source
# [7] = anhydrous MF, 10% w/w CREMOPHOR RH 40 (polyoxyl 40 hydrogenated castor oil) in water
# [8] = anhydrous MF, 10% w/w SOLUTOL HS 15 (polyethylene glycol 660-12 hydroxystearate) in water
# [9] = anhydrous MF, 10% w/w TWEEN 80 (polysorbate 80) in water
structure (smiles),measurement,setting,value
"C[C@@H]1C[C@H]2[C@@H]3CCC4=CC(=O)C=C[C@]4(C)[C@@]3(Cl)[C@@H](O)C[C@]2(C)[C@@]1(OC(=O)c1ccco1)C(=O)CCl [MF, mometasone furoate]",solubility,[1]; 10% Vitamin E TPGS in water,~500 µg/mL
same,solubility,[1]; [7],180 to 200 µg/mL
same,solubility,"[1]; anhydrous MF, 10% w/w LUTROL F127 (poloxamer 407) in water",27 µg/mL
same,solubility,[1]; [8],180 to 200 µg/mL
same,solubility,[1]; [9],180 to 200 µg/mL
same,solubility,"[1]; anhydrous MF, 10% w/w Vitamin E TPGS (d-α tocopheryl PEG 1000 succinate) in water",499 µg/mL
same,solubility,[1]; solutions with 10% polyoxamers,< 30 µg/mL
same,solubility,[1]; solutions with 10% polyvinylpyrrolidones,< 30 µg/mL
same,MF Solubility,[1]; [7],189 µg/mL
same,MF Solubility,[1]; [8],184 µg/mL
same,MF Solubility,[1]; [9],199 µg/mL
same,concentration of mometasone furoate achieved,"[2]; 20% w/w SOLUTOL HS-15, 75% phosphate buffer system (PBS)",538 µg/mL
same,concentration of mometasone furoate achieved,"[2]; 20% w/w SOLUTOL HS-15, PBS replaced with water",~519 µg/mL
same,solubility at 72 h,"[2]; 20% SOLUTOL HS-15 microemulsions with varying amounts of different oils, 72 hour shaking, read-out: drug solubility (equilibrium)",300 to 600 µg/mL
same,solubility at 72 h,"[2]; microemulsion Example 1: MIGLYOL 812 4% w/w, SOLUTOL HS 15 20% w/w, read-out: Solubilized MF",502 µg/mL
same,solubility at 72 h,"[2]; microemulsion Example 2: MIGLYOL 812 5% w/w, SOLUTOL HS 15 20% w/w, read-out: Solubilized MF",538 µg/mL
same,solubility at 72 h,"[2]; microemulsion Example 4: MIGLYOL 840 4% w/w, SOLUTOL HS 15 20% w/w, read-out: Solubilized MF",540 µg/mL
same,solubility at 72 h,"[2]; microemulsion Example 5: CAPRYOL 3% w/w, SOLUTOL HS 15 20% w/w, read-out: Solubilized MF",422 µg/mL
same,solubility at 72 h,"[2]; microemulsion Example 6: corn oil 3% w/w, SOLUTOL HS 15 20% w/w, read-out: Solubilized MF",408 µg/mL
same,solubility at 72 h,"[2]; microemulsion Example 7: oleic acid 2% w/w, SOLUTOL HS 15 20% w/w, read-out: Solubilized MF",323 µg/mL
same,solubility at 72 h,"[2]; microemulsion Example 8: soybean oil 1% w/w, SOLUTOL HS 15 20% w/w, read-out: Solubilized MF",375 µg/mL
same,solubility at 72 h,"[2]; microemulsion Example 9: soybean oil 2% w/w, SOLUTOL HS 15 20% w/w, read-out: Solubilized MF",397 µg/mL
same,solubility at 72 h,"[2]; microemulsion: ethyl laurate 5% w/w, polyethylene glycol 660-12 hydroxystearate 20% w/w, read-out: MF Solubility",540 µg/mL
same,drug concentration determined by HPLC,"[2]; about 5 mg drug dissolved in 2 g SOLUTOL HS-15 + 0.5 g MIGLYOL 812, then 7.5 g distilled water, target 500 mcg/ml",500 µg/mL
same,Concentration of MF in solutions with cyclodextrins,"[3]; Captisol (SBE beta-CD) 0.05M, three day equilibration",84 µg/mL
same,Concentration of MF in solutions with cyclodextrins,[3]; Captisol (SBE beta-CD) 0.2M,261 µg/mL
same,Concentration of MF in solutions with cyclodextrins,[3]; SBE(6.1) gamma-CD 0.05M,262 µg/mL
same,Concentration of MF in solutions with cyclodextrins,[3]; SBE(6.1) gamma-CD 0.2M,1840 µg/mL
same,Concentration of MF in solutions with cyclodextrins,[3]; SBE(6.2) gamma-CD 0.05M,250 µg/mL
same,Concentration of MF in solutions with cyclodextrins,[3]; SBE(6.2) gamma-CD 0.2M,1940 µg/mL
same,Concentration of MF in solutions with cyclodextrins,[3]; unsubstituted gamma-CD 0.05M,117 µg/mL
same,Concentration of MF in solutions with cyclodextrins,[3]; unsubstituted gamma-CD 0.1M,249 µg/mL
same,solubility,[4]; 0.2 M Captisol + 0.01% w/v Polysorbate 80,235 µg/mL
same,solubility,[4]; 0.2 M Captisol + 0.02% w/v Benzalkonium Chloride,243 µg/mL
same,solubility,[4]; 0.2 M Captisol + 0.1% w/v HPMC,258 µg/mL
same,solubility,[4]; 0.2 M Captisol + 0.1% w/v Na-CMC,242 µg/mL
same,solubility,[4]; 0.2 M Captisol + 0.1% w/v PVP-30,290 µg/mL
same,solubility,[4]; 0.2 M Captisol + 1% v/v EtOH,236 µg/mL
same,solubility,[4]; 0.2 M Captisol + 2.1% w/v Glycerin,220 µg/mL
same,solubility,[4]; 0.2 M Captisol + 10% v/v EtOH,121 µg/mL
same,solubility,[4]; 0.2 M Captisol + 10% w/v Propylene Glycol,107 µg/mL
same,solubility at 72 h,[5],90 µg/mL
same,Concentration of MF in solutions with cyclodextrins,[6]; Captisol (SBE beta-CD) 0.1M,152 µg/mL
same,Concentration of MF in solutions with cyclodextrins,[6]; SBE(6.1) gamma-CD 0.1M,626 µg/mL
same,Concentration of MF in solutions with cyclodextrins,[6]; SBE(6.2) gamma-CD 0.1M,569 µg/mL
